Measurements: ChEMBL document CHEMBL3885881, “DrugMatrix”

Species: Rattus norvegicus
Test: DrugMatrix - Regimen: Daily Repeat
Format: toxicity, organism-based, Sprague-Dawley
Parameters: regimen Daily Repeat, gender Male, age 6-8 weeks
Conditions: in vivo, po, route oral GAVAGE, vehicle 100 % WATER; for ABSOLUTE BASOPHIL / ABSOLUTE EOSINOPHIL / ABSOLUTE LYMPHOCYTE / ABSOLUTE MONOCYTE / ABSOLUTE SEGMENTED NEUTROPHIL / BASOPHIL / EOSINOPHIL / ERYTHROCYTE COUNT / HEMATOCRIT / HEMOGLOBIN / LEUKOCYTE COUNT / LYMPHOCYTE / MEAN CORPUSCULAR HEMOGLOBIN / MEAN CORPUSCULAR HEMOGLOBIN CONCENTRATION / MONOCYTE / NEUTROPHIL / NUCLEATED RED BLOOD CELLS / PLATELET COUNT: tissue Blood; for ALANINE AMINOTRANSFERASE / ALBUMIN / ALKALINE PHOSPHATASE / BLOOD UREA NITROGEN / CARBON DIOXIDE / CHLORIDE / CHOLESTEROL / CREATINE PHOSPHOKINASE / CREATININE / GLUCOSE / LACTATE DEHYDROGENASE / LIPASE / PHOSPHORUS / POTASSIUM / SODIUM / TOTAL BILIRUBIN / TOTAL PROTEIN / URIC ACID: tissue Plasma
[1] = 0 mg/kg, 72 h, dose level Control, time 3 day
[2] = 0 mg/kg, 120 h, dose level Control, time 5 day
[3] = 15 mg/kg, 72 h, dose level Low, time 3 day

SMILES: Cc1ccc(NC(=O)c2ccc(CN3CCN(C)CC3)cc2)cc1Nc1nccc(-c2cccnc2)n1 [IMATINIB]
- ABSOLUTE BASOPHIL [1]: 0 CELLS/uL
- ABSOLUTE EOSINOPHIL [1]: 151.33 CELLS/uL
- ABSOLUTE LYMPHOCYTE [1]: 10599.5 CELLS/uL
- ABSOLUTE MONOCYTE [1]: 109.5 CELLS/uL
- ABSOLUTE SEGMENTED NEUTROPHIL [1]: 1139.67 CELLS/uL
- BASOPHIL [1]: 0%
- EOSINOPHIL [1]: 0.83%
- ERYTHROCYTE COUNT [1]: 5.54 x10E6/uL
- HEMATOCRIT [1]: 35.35%
- HEMOGLOBIN [1]: 13.22 G/DL
- LEUKOCYTE COUNT [1]: 12 x10E3/uL
- LYMPHOCYTE [1]: 89%
- MEAN CORPUSCULAR HEMOGLOBIN [1]: 23.88 pg
- MEAN CORPUSCULAR HEMOGLOBIN CONCENTRATION [1]: 37.4 G/DL
- MONOCYTE [1]: 1%
- NEUTROPHIL [1]: 9.17%
- NUCLEATED RED BLOOD CELLS [1]: 0 /100WBC
- PLATELET COUNT [1]: 1333.33 x10E3/uL
- ALANINE AMINOTRANSFERASE [1]: 53.17 u/L
- ALBUMIN [1]: 4.32 G/DL
- ALKALINE PHOSPHATASE [1]: 404.33 u/L
- BLOOD UREA NITROGEN [1]: 15.67 mg/dL
- CARBON DIOXIDE [1]: 27.33 mmol/L
- CHLORIDE [1]: 101.83 MEQ/L
- CHOLESTEROL [1]: 68.67 mg/dL
- CREATINE PHOSPHOKINASE [1]: 276.17 u/L
- CREATININE [1]: 0.18 mg/dL
- GLUCOSE [1]: 163.5 mg/dL
- LACTATE DEHYDROGENASE [1]: 144.67 u/L
- LIPASE [1]: 8.83 u/L
- PHOSPHORUS [1]: 11.72 mg/dL
- POTASSIUM [1]: 5.99 MEQ/L
- SODIUM [1]: 143.57 MEQ/L
- TOTAL BILIRUBIN [1]: 0.2 mg/dL
- TOTAL PROTEIN [1]: 6.1 G/DL
- URIC ACID [1]: 1.38 mg/dL
- ABSOLUTE BASOPHIL [2]: 0 CELLS/uL
- ABSOLUTE EOSINOPHIL [2]: 248.67 CELLS/uL
- ABSOLUTE LYMPHOCYTE [2]: 12977.83 CELLS/uL
- ABSOLUTE MONOCYTE [2]: 19.67 CELLS/uL
- ABSOLUTE SEGMENTED NEUTROPHIL [2]: 1137.17 CELLS/uL
- BASOPHIL [2]: 0%
- EOSINOPHIL [2]: 1.67%
- ERYTHROCYTE COUNT [2]: 5.82 x10E6/uL
- HEMATOCRIT [2]: 36.35%
- HEMOGLOBIN [2]: 13.58 G/DL
- LEUKOCYTE COUNT [2]: 14.38 x10E3/uL
- LYMPHOCYTE [2]: 90.5%
- MEAN CORPUSCULAR HEMOGLOBIN [2]: 23.32 pg
- MEAN CORPUSCULAR HEMOGLOBIN CONCENTRATION [2]: 37.42 G/DL
- MONOCYTE [2]: 0.17%
- NEUTROPHIL [2]: 7.67%
- NUCLEATED RED BLOOD CELLS [2]: 0 /100WBC
- PLATELET COUNT [2]: 1337.67 x10E3/uL
- ALANINE AMINOTRANSFERASE [2]: 48.5 u/L
- ALBUMIN [2]: 4.32 G/DL
- ALKALINE PHOSPHATASE [2]: 354.33 u/L
- BLOOD UREA NITROGEN [2]: 16 mg/dL
- CARBON DIOXIDE [2]: 27.33 mmol/L
- CHLORIDE [2]: 100.33 MEQ/L
- CHOLESTEROL [2]: 68 mg/dL
- CREATINE PHOSPHOKINASE [2]: 325.17 u/L
- CREATININE [2]: 0.23 mg/dL
- GLUCOSE [2]: 172 mg/dL
- LACTATE DEHYDROGENASE [2]: 254.83 u/L
- LIPASE [2]: 8.33 u/L
- PHOSPHORUS [2]: 12.17 mg/dL
- POTASSIUM [2]: 6.28 MEQ/L
- SODIUM [2]: 143.57 MEQ/L
- TOTAL BILIRUBIN [2]: 0.18 mg/dL
- TOTAL PROTEIN [2]: 6.12 G/DL
- URIC ACID [2]: 1.78 mg/dL
- ABSOLUTE BASOPHIL [3]: 0 CELLS/uL
- ABSOLUTE EOSINOPHIL [3]: 119.67 CELLS/uL
- ABSOLUTE LYMPHOCYTE [3]: 6343 CELLS/uL
- ABSOLUTE MONOCYTE [3]: 102.67 CELLS/uL
- ABSOLUTE SEGMENTED NEUTROPHIL [3]: 568 CELLS/uL
- BASOPHIL [3]: 0%
- EOSINOPHIL [3]: 1.67%
- ERYTHROCYTE COUNT [3]: 5.21 x10E6/uL
- HEMATOCRIT [3]: 33.27%
- HEMOGLOBIN [3]: 12.53 G/DL
- LEUKOCYTE COUNT [3]: 7.13 x10E3/uL
- LYMPHOCYTE [3]: 89.33%
- MEAN CORPUSCULAR HEMOGLOBIN [3]: 24.03 pg
- MEAN CORPUSCULAR HEMOGLOBIN CONCENTRATION [3]: 37.7 G/DL
- MONOCYTE [3]: 1.33%
- NEUTROPHIL [3]: 7.67%
- NUCLEATED RED BLOOD CELLS [3]: 0 /100WBC
- PLATELET COUNT [3]: 1102.33 x10E3/uL
- ALANINE AMINOTRANSFERASE [3]: 49.67 u/L
- ALBUMIN [3]: 4.23 G/DL
- ALKALINE PHOSPHATASE [3]: 362.67 u/L
- BLOOD UREA NITROGEN [3]: 15.33 mg/dL
- CARBON DIOXIDE [3]: 28.33 mmol/L
- CHLORIDE [3]: 102 MEQ/L
- CHOLESTEROL [3]: 64.67 mg/dL
- CREATINE PHOSPHOKINASE [3]: 198.67 u/L
- CREATININE [3]: 0.21 mg/dL
- GLUCOSE [3]: 165 mg/dL
- LACTATE DEHYDROGENASE [3]: 128.33 u/L
- LIPASE [3]: 8 u/L
- PHOSPHORUS [3]: 11 mg/dL
- POTASSIUM [3]: 5.66 MEQ/L
- SODIUM [3]: 144.5 MEQ/L
- TOTAL BILIRUBIN [3]: 0.2 mg/dL
- TOTAL PROTEIN [3]: 6.03 G/DL
- URIC ACID [3]: 0.97 mg/dL
